Test results taken from PubChem BioAssay (NCI).
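Tested at 5 concentrations; 48 h exposure; 96-well plates; endpoints linearly interpolated, else capped at highest concentration. Definition used: TGI = concentration required for complete inhibition of growth.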

Tests used:
Assay in all cases: growth of human tumour cells (NCI), 48 h
RXF 393 renal = system: RXF 393 renal
MCF7 breast = system: MCF7 breast
OVCAR-4 ovarian = system: OVCAR-4 ovarian
ACHN renal = system: ACHN renal
CCRF-CEM leukemia = system: CCRF-CEM leukemia
OVCAR-3 ovarian = system: OVCAR-3 ovarian
DU-145 prostate = system: DU-145 prostate
UO-31 renal = system: UO-31 renal
NCI-H522 lung = system: NCI-H522 lung
RPMI-8226 leukemia = system: RPMI-8226 leukemia
SN12C renal = system: SN12C renal
NCI-H23 lung = system: NCI-H23 lung
SR leukemia = system: SR leukemia
SK-MEL-28 melanoma = system: SK-MEL-28 melanoma
HCT-15 colon = system: HCT-15 colon
MOLT-4 leukemia = system: MOLT-4 leukemia
UACC-62 melanoma = system: UACC-62 melanoma
SK-MEL-2 melanoma = system: SK-MEL-2 melanoma
NCI/ADR-RES ovarian = system: NCI/ADR-RES ovarian
UACC-257 melanoma = system: UACC-257 melanoma

Measured: TGI

CCOC(=O)/C=C/CC(C)(C)COC(C)=O
> 10 µM: RXF 393 renal | MCF7 breast | OVCAR-4 ovarian | ACHN renal | CCRF-CEM leukemia | OVCAR-3 ovarian | DU-145 prostate | UO-31 renal | NCI-H522 lung | RPMI-8226 leukemia | SN12C renal | NCI-H23 lung | SR leukemia | SK-MEL-28 melanoma | HCT-15 colon | MOLT-4 leukemia | UACC-62 melanoma | SK-MEL-2 melanoma | NCI/ADR-RES ovarian | UACC-257 melanoma
